Results on 22 compounds are retold here after patent publication US5846978A, “HIV protease inhibitors useful for the treatment of AIDS” (Merck & Co., Inc., priority 1997, dated 1998).

The target in assay [1] is T1, HIV protease (Human immunodeficiency virus type 1 group M subtype B, UniProt P12497).
T1 construct: made in house; host or cells: Escherichia coli
Briefly: Assay for Inhibition of Microbial Expressed HIV Protease (peptide substrate cleavage, HPLC). In kind it is biochemical. The conditions noted are these: for % inhibition: concentration not given; for % inhibition / IC50: pH 5.5, 30° C., 1 hour. How it is done:
Assay for Inhibition of Microbial Expressed HIV Protease
Inhibition studies of the reaction of the protease expressed in Eschericia coli with a peptide substrate [Val-Ser-Gln-Asn-(betanapthyl)Ala-Pro-Ile-Val, 0.5 mg/mL at the time the reaction is initiated] were in 50 mM Na acetate, pH 5.5, at 30° C. for 1 hour. Various concentrations of inhibitor in 1.0 μl DMSO were added to 25 μl of the peptide solution in water. The reaction is initiated by the addition of 15 μl of 0.33 nM protease (0.11 ng) in a solution of 0.133M Na acetate pH 5.5 and 0.1% bovine serum albumin. The reaction was quenched with 160 μl of 5% phosphoric acid. Products of the reaction were separated by HPLC (VYDAC wide pore 5 cm C-18 reverse phase, acetonitrile gradient, 0.1% phosphoric acid). The extent of inhibition of the reaction was determined from the peak heights of the products. […] [drawing 61] 5(RS)-((4')-2"-furanyl)methylpheny-9(RS)-hydroxy-1(RS)-hydroxy-methyl-3-(2' -methylpropyl-3-azabicyclo[3.3.1]nonan-7-one (Compound 10, Table 1) [drawing 62]

In assay [2] the target is T1, HIV protease. Described as above. In kind it is biochemical. To be noted: concentration printed as (8.8) μM (column head 'Enzyme concentration (μM)'); pH 5.5, 30° C., 1 hour.

Regarding `CC(C)C[C@H](CO)CN1CC2(CO)CC(=O)CC(Cc3ccccc3)(C1)C2O` (stereo partly shown) [Compound 14], the % inhibition (usually the change of the read-out against control, counted positive when it falls) in assay [1] was 62%.

Consider `CC(C)CN1CC2(CO)CC(=O)CC(Cc3ccccc3)(C1)C2O` (stereo not shown) [Compound 5], for which testing at 250 µM in assay [1] (pH 5.5) gave an inhibition of 63%. Consider `CC(C)CN1CC2(CO)CC(=O)CC(Cc3ccc(-c4ccco4)cc3)(C1)C2O` (stereo not shown) [Compound 10], for which the inhibition (as a rule, how much of the control response was suppressed) at 100 µM in assay [1] (pH 5.5) worked out at 62%. Compound `CC(C)(C)N1CC2(CO)CC(=O)CC(Cc3ccc4ccccc4c3)(C1)C2O` (stereo not shown) [Compound 12] had an inhibition at 100 µM in assay [1] (pH 5.5) of 43%.

As for `CC(C)(C)N1CC2(Cc3ccccc3)CC(=O)CC(C(O)Cc3ccccc3)(C1)C2O` (stereo not shown) [Compound 19], at 50 µM the inhibition in assay [1] (pH 5.5) was 44%.

`CCCCC(O)C12CC(=O)CC(Cc3ccccc3)(CN(CC(C)C)C1)C2O` (stereo not shown) [Compound 15] gave an inhibition at 100 µM in assay [1] (pH 5.5) of 73%. The IC50 (usually the concentration that inhibits the measured activity by half) in assay [1] was found to be 14 µM.

For `CC(C)CN1CC2(CO)CC(=O)CC(Cc3ccc(Br)cc3)(C1)C2O` (stereo not shown) [Compound 6], at 250 µM the inhibition in assay [1] (pH 5.5) was 71%. Also, the midpoint of inhibition in assay [1], the IC50, lay at 244 µM.

In turn, `CC(C)(C)N1CC2(CO)CC(=O)CC(Cc3ccccc3Br)(C1)C2O` (stereo not shown) [Compound 11] gave an inhibition at 100 µM in assay [1] (pH 5.5) of 76%. Also, in assay [1], half-maximal inhibition (IC50) was put at 30 µM. `CC(C)CN1CC2(Cc3ccccc3)CC(=O)CC(C(O)Cc3ccccc3N)(C1)C2O` (stereo not shown) [Compound 20]: testing at 100 µM in assay [1] (pH 5.5) gave an inhibition of 93%. In addition, in assay [1], the IC50 came to 1.6 µM. Consider `O=C1CC2(Cc3ccccc3)CN(CC3CCCO3)CC(C(O)Cc3ccccc3)(C1)C2O` (stereo not shown) [Compound 22], for which, in assay [1] (pH 5.5), the inhibition at 100 µM is 84%. In assay [1], this compound registered an IC50 of 10.4 µM. `O=C1CC2(CO)CN(CC3CC3)CC(Cc3ccccc3)(C1)C2O` (stereo not shown) [Compound 2] had an inhibition at 250 µM in assay [1] (pH 5.5) of 56%.

With `O=C1CC2(Cc3ccccc3)CN(Cc3ccccc3)CC(C(O)Cc3ccccc3)(C1)C2O` (stereo not drawn) [Compound 18, 5(RS)-methylpheny-9(RS)-hydroxy-1(RS)-((1'-hydroxy)-2'-phenyl)-ethyl-3-benzyl-3-azabicyclo[3.3.1]nonan-7-one], in assay [1] (pH 5.5), 50 µM produced 63% inhibition.

`O=C1CC2(CO)CN(Cc3ccccc3)CC(Cc3ccccc3)(C1)C2O` (stereo not shown) [Compound 4] gave an inhibition at 250 µM in assay [1] (pH 5.5) of 82%. Consider `O=C1CC2(Cc3ccccc3)CN(CC3CCCC3)CC(C(O)Cc3ccccc3)(C1)C2O` (stereo not shown) [Compound 21], for which the inhibition at 25 µM in assay [1] (pH 5.5) turned out to be 80%. In assay [1], the IC50 was determined as 1.8 µM. Regarding `COc1ccccc1-c1ccc(CC23CC(=O)CC(CO)(CN(CC(C)C)C2)C3O)cc1` (stereo not shown) [Compound 7], the inhibition at 100 µM in assay [1] (pH 5.5) was 56%. In assay [1], `O=C1CC2(CO)CN(CC3CCCC3)CC(Cc3ccccc3)(C1)C2O` (stereo not shown) [Compound 9] came in with an IC50 of 89 µM.

Regarding `CC(C)(C)CN1CC2(CO)CC(=O)CC(Cc3ccccc3)(C1)C2O` (stereo not shown) [Compound 3], in assay [1] (pH 5.5), testing at 250 µM gave an inhibition of 69%.

`CC(C)CN1CC2(Cc3ccccc3)CC(=O)CC(C(O)Cc3ccccc3)(C1)C2O` (stereo not drawn) [Compound 16, 5(RS)-methylphenyl-9(RS)-hydroxy-1(RS)-((1'-hydroxy)-2'-phenyl)-ethyl-3-(2"-methyl)propyl-3-azabicyclo[3.3.1] nonan-7-one] displayed an IC50 in assay [1] of 50 µM. Also, the “% inhibition” value in assay [2] amounted to 82%. Regarding `CC(C)CCN1CC2(CO)CC(=O)CC(Cc3ccccc3)(C1)C2O` (stereo not shown) [Compound 8], the “% inhibition” value in assay [1] worked out at 68%. Turning to `CC(C)C[C@@H](CO)CN1CC2(CO)CC(=O)CC(Cc3ccccc3)(C1)C2O` (stereo partly shown) [Compound 13], in assay [1], the “% inhibition” value was 75% and 44 µM corresponded to half-maximal inhibition (IC50). For `O=C1CC2(Cc3ccccc3)CN(Cc3ccccc3)CC(C(O)C#Cc3ccccc3)(C1)C2O` (stereo not shown) [Compound 17], in assay [1] (pH 5.5), the inhibition at 50 µM stood at 52%.

`O=C1CC2(Cc3ccccc3)CN(Cc3ccccc3)CC(C(O)CN3CCCCS3(=O)=O)(C1)C2O` (stereo not shown) [Compound 23] had an inhibition at 100 µM in assay [1] (pH 5.5) of 69%. The IC50 in assay [1] amounted to 29 µM.
